Results on nine compounds are retold here after patent US9566264B2, “Combinations and methods” (Euthymics Bioscience, Inc., priority 2013, dated 2017).

The target of one series is T1, CYP2B6 (Homo sapiens, UniProt P20813).
T1 sequence (P20813 1-491): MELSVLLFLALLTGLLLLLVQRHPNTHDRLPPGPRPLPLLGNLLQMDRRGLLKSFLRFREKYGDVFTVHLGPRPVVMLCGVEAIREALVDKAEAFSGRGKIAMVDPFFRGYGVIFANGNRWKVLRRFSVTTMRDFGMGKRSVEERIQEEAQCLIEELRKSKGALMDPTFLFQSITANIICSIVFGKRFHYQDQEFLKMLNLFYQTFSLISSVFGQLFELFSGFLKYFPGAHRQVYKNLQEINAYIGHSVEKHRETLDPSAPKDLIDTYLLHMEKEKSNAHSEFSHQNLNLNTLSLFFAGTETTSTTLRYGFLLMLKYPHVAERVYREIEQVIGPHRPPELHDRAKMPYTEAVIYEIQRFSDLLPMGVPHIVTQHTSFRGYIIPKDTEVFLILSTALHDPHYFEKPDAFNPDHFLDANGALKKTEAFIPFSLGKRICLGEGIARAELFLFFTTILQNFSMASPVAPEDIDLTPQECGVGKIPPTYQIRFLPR
Briefly: Inhibition of human CYP activity in microsomes: bupropion hydroxylation. The conditions noted are these: pooled human liver microsomes, 10 to 30 min at 37° C. For orientation: Liver microsomes are vesicles of endoplasmic reticulum, rich in cytochrome P450 enzymes.

Series [1] is described as follows: Flavin monooxygenase (FMO)-dependent lactam formation screening (pre-incubation temperature). Format: in vitro ADME, human. The note with it: for formation: area under the curve ratio of analyte to internal standard bicifadine-d5: 1 mM NADPH, mean ± SD; for formation after 37° C. pre-incubation versus 45° C. pre-incubation: 5 minute pre-incubation. The protocol: FMOs, but not CYP enzymes, are sensitive to elevated incubation temperature. Thus, to determine if the formation of the lactam metabolite is mediated by FMOs and/or CYPs, the effect of pre-incubation temperature on the lactam formation is conducted by XenoBiotic Laboratories, Inc. (Plainsboro, N.J.). […] The incubation of benzydamine (positive control, 200 μM) is carried out concurrently. The samples are analyzed using LC-MS/MS (see NADPH-dependent lactam formation methodology).

Series [2] can be described thus: Brain and plasma levels of amitifadine and lactam metabolite Compound 2 in rat. The series is classed as in vivo. More on the design: plasma level, mean±SEM: unit not given here. The conditions noted are these: for plasma level, mean±SEM: amitifadine 10 mg/kg po. The protocol:
The studies are conducted in accordance with the Institutional Animal Care and Use Committee guidelines. […] At 0.5, 1, 2, and 4 hour after dosage, animals are briefly anesthetized in a chamber containing 4% isoflurane and rapidly decapitated. Trunk blood is collected in heparinized tubes (9 units/ml whole blood), immediately chilled to 4° C., centrifuged, and the plasma is frozen at −80° C. until analyzed. Brains are quickly removed, bisected along the midline, and frozen at −80° C. until analyzed.
Plasma and brain samples are allowed to thaw on ice and are homogenized in a 20 ml glass vial in two volumes of ice cold water using a handheld homogenizer (VDI 12, VWR International). Standard curves are prepared in water, control plasma, and control brain homogenate. Equal volumes (100 μl) of plasma or brain homogenate samples, distilled water and internal standard are mixed in 1.5 ml polypropylene tubes and 300 μl of acetonitrile is added to each mixture. Samples are then mixed thoroughly by placing on a shaker at 200 RPM for 40 minutes at room temperature. The samples are then centrifuged at 10,000×g for 10 minutes at 4° C. and the supernatant (200 μl) is transferred to a tube containing 2 μl of 10% formic acid. The samples are subjected to a Zorbax SBC18 Solvent Saver Plus 3.0×150 mm 3.5-μm column on a Shimadzu Prominence LC. […] The concentration of compound in the column effluent is measured using an Applied Biosystems API-3200 triple quadrupole mass spectrometer.

In a further series the test system is monoamine transporters. Briefly: Affinity for monoamine transporters. Format: binding.
Series [3] can be described thus: MAO phenotyping with MAO inhibitors in human liver mitochondria. The conditions noted are these: 1 μM parent, 30 minutes at 37° C. Format: in vitro ADME. The protocol:
A study on the role of monoamine oxidases involved in the formation of the lactam metabolite is conducted by XenoBiotic Laboratories, Inc. (Plainsboro, N.J.).

Series [4] in a line: NADPH-dependent lactam formation in human liver microsomes. The note with it: for formation: area under the curve ratio of analyte to internal standard bicifadine-d5: 10 μM parent, 30 minutes, mean ± SD. Format: in vitro ADME. As for the experimental part: The effect of NADPH on lactam formation ((1S,5R)-5-(3,4-dichlorophenyl)-3-azabicyclo[3.1.0]hexan-2-one hydrochloride, Compound 2) is conducted by XenoBiotic Laboratories, Inc. (Plainsboro, N.J.). […] Bicifadine ((±)-1-(4-methylphenyl)-3-azabicyclo-[3.1.0]hexane HCl) (10 μM) is used as a positive control and the formation of the lactam metabolite of bicifadine (designated M12) is also monitored. Negative controls are determined by incubation of amitifadine and bicifadine in the absence of liver enzymes. The samples are analyzed using LC-MS/MS.
The system controller for the HPLC system is a Shimadzu SCL-10Avp, the pump model is a Shimadzu LC-10Avp, and the autosampler model is Shimadzu HTA. The analytical column is Phenomenex Luna C18 5 μm 50×2.0 mm which is set at room temperature and the autosampler is also at room temperature. The injection volume is 5 μl. Mobile phase A is 0.05% formic acid in water and mobile phase B is 0.05% formic acid in acetonitrile. The flow rate is 0.7 ml/minute and run time is 5 minutes. The mass spectrometer is an AB MDX Sciex API-4000 run in the turbo ion spray (ESI) positive ion detection mode and the scan mode is multiple reaction monitoring (MRM). The optimized mass spectrometry conditions are ion spray at 5000 V, curtain gas 10 units temperature 500° C., entrance potential 10 V, collision gas 6 units, and gas 1 and 2 each 50 units.

A further series addresses CYP2C19 (Homo sapiens, UniProt P33261). Briefly: Inhibition of human CYP activity in microsomes: (S)-mephenytoin 4′-hydroxylation. The conditions noted are these: pooled human liver microsomes, 10 to 30 min at 37° C.
A further series has as its system Caco-2 cells. Briefly: Caco-2 bi-directional permeability assay. The series is classed as in vitro ADME, human. The protocol: Caco-2 cells are obtained from American Type Culture Collection (ATCC, Manassas, Va.) and are grown to confluence for 14-21 days on 1 μm filters in 24 well plates. […] Receiver solutions consist of buffer only. Sequential samples of transported solute are taken at 20 minute intervals in duplicate over 2 hours and the concentration of the transported compound is determined by HPLC-UV/MS. Test sample concentration is determined by LC/MS. Permeability coefficients are calculated for each sampling interval, and averages from the intervals are determined. The apparent permeability coefficient Papp is calculated from the equation
[formula] where dQ/dt is the rate of permeation of drug across the cells, C0 is the original concentration in donor compartment at time zero, and A is the area of the cell monolayer. Mass balance in the system is ascertained by comparing the sum of transported solute and remaining donor solute to the starting solution concentration.

Series [5] can be described thus: Human plasma protein binding (ultrafiltration). Format: in vitro ADME. The protocol: Samples of test drug in triplicate are mixed and incubated in Millipore Multiscreen filter plates with Ultracel-10 regenerated cellulose membranes for 60 minutes at 37° C. Following incubation, samples undergo centrifugation for 60 minutes at 2000×g and the filtrate is collected. Percent protein bound is determined from the concentration of free compound present in the filtrate following comparison to a standard curve of test drug. […] The flow rate is 1 ml/min and the column temperature is maintained at 50° C. The solvent is a gradient of solvent A composed of 0.1% formic acid in water and solvent B composed of acetonitrile with 0.07% formic acid.

Series [6] relates to human hepatocytes. Put plainly: In vitro metabolism in human hepatocytes. The conditions noted are these: 100 μM, 4 hours incubation.
Method: (§1) Cryopreserved human hepatocytes (male) that are prepared by XenoTech, LLC (Lenexa, Kans.), are thawed on the day of use and resuspended in Waymouth's incubation media. The enzymatic activity of hepatocytes is monitored using 7-ethoxycoumarin and 7-hydroxycoumarin as substrates. […] The incubations are carried out for 4 hours with 1×10^6 viable cells/ml. […] At 0 and 4 hour, cell suspensions are extracted using two volumes of ice cold methanol. After centrifugation, the extracts are stored at −20° C. until further sample processing. The solvent in the samples are dried under a stream of nitrogen, and resuspended in methanol:water (1:1) before analysis.
(§2) The extracts of the 4 hour incubation mixture are analyzed by liquid chromatography/electrospray ionization-mass spectrometry (LC/ESI-MS) in the positive and negative ion modes to screen for possible metabolites. […] The same instrumentation and methods in HPLC Method 1 are used in HPLC Method 2 with the exception that the mobile phases and gradient are 0.4% HCOOH in H2O for mobile A and CH3OH for mobile phase B. The mass spectrometer is LCQ™ Ion Trap Mass Spectrometer and is in either the positive or negative electrospray mode with the ion spray set at 4.5 kV. The capillary temperature is 250° C., the nitrogen sheath gas flow rate is ˜80 unit, the auxiliary nitrogen gas flow rate is 20 unit, and the collision gas is helium.
For series [7], the system named is human hepatocytes. The conditions noted are these: male, 4 h.
Method: as §1, §2
[8] abbreviates: microsomes pre-incubated at 37° C. for 5 minutes.
[9] abbreviates: microsomes pre-incubated at 45° C. for 5 minutes.
Where [10] appears, read: male, Sprague-Dawley, brain/plasma, po, 10 mg/kg, read-out: brain to plasma ratio.
[11] abbreviates: human, Caco-2, 2 h, 10 μM, pH 7.4.

Structures can show the parent of a compound that is named as a salt. Where two headings read alike, the source gives them in different places.

CYP2C19, sequence (P33261 whole entry): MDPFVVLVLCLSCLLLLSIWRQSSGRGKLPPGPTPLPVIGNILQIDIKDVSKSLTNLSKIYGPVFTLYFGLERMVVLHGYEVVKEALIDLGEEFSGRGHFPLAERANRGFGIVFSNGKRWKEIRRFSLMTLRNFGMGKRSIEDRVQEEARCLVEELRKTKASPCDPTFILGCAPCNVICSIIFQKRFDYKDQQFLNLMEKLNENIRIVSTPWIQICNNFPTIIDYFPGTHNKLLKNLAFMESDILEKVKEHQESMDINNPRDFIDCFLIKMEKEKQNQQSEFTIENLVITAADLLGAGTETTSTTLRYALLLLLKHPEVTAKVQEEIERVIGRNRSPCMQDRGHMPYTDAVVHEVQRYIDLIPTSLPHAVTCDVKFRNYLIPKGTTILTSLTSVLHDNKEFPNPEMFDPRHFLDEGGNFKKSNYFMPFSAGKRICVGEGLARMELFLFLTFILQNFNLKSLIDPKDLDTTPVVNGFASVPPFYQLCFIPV

For the compound `CC(Nn1nnc2ccccc21)c1ccccc1` (stereo not drawn) [N-(α-methylbenzyl)-1-AB, N-(α-methylbenzyl)-1-aminobenzotriazole], the IC50 (usually the concentration that inhibits the measured activity by half) against CYP2B6 was determined as 60 nM.
For `O=C1NC[C@]2(c3ccc(Cl)c(Cl)c3)C[C@H]12` [Compound 2, (1S,5R)-5-(3,4-dichlorophenyl)-3-azabicyclo[3.1.0]hexan-2-one hydrochloride], the “formation: area under the curve ratio of analyte to internal standard bicifadine-d5” value in [1] (setting [8]) amounted to 0.05 ± 0.01; in [1] (setting [9]), 0.06 ± 0.01; in [4] (0 mM NADPH at 37° C), 0.04 ± 0.00; in series [4] (1 mM NADPH at 37° C.), 0.08 ± 0.01. The “formation after 37° C. pre-incubation versus 45° C. pre-incubation” value in [1] is “did not alter”. Further, the “plasma level, mean±SEM” value in series [2] (0.5 hours) was 1153±610; in series [2] (1 hour), 1620±303; in [2] (2 hours), 3831±1127; in series [2] (4 hours) it was 8896±794. Also, the Kp at 0.5 h in [2] (setting [10]) amounted to 1.1. In series [2] (setting [10]), the Kp at 1 h turned out to be 1.3. The Kp at 2 h in series [2] (setting [10]) was 1.4. Besides, the Kp at 4 h in series [2] (setting [10]) amounted to 1.7. Moreover, the “affinity for monoamine transporters” value with monoamine transporters is reported as “low affinity”. For the same compound, the “effect of MAO-A inhibitor clorgyline on lactam formation” value in series [3] is “concentration-dependently decreased”. Moreover, the “effect of MAO-B inhibitor selegiline on lactam formation” value in series [3] is on record as “did not have an effect”. Besides, in series [4] (1 mM vs 0 mM NADPH), the “quantity formed in presence of NADPH versus absence of NADPH” value stood at 2 fold.
Regarding `CC[C@@]1(c2ccccc2)C(=O)NC(=O)N(Cc2ccccc2)C1=O` [(R)-N-3-benzyl-Phenobarb-ital, (R)—N-3-benzylphenobarbital], the IC50 against CYP2C19 stood at 300 nM.
For Lucifer yellow [reference compound], the “transfer across Caco-2 monolayer (integrity)” value in the series with Caco-2 cells (Caco-2) was ≤ 0.05%.
Turning to `Cn1c(=O)c2c(ncn2C)n(C)c1=O` [Caffeine], the fraction unbound at 60 min, 1 μM in series [5] (1 μM, mean and SEM of triplicate, read-out: % Bound (converted)) is 0.73. In addition, the fraction unbound at 60 min, 10 μM in series [5] (10 μM, mean and SEM of triplicate, read-out: % Bound (converted)) is 0.641. The same compound had a fraction unbound at 60 min in series [5] (average of 1 and 10 μM) of 0.685.
In the case of `C[N+](C)([O-])CCCOc1nn(Cc2ccccc2)c2ccccc12` [Benzydamine N-oxide, reference compound], the results for the “formation: area under the curve ratio of analyte to internal standard bicifadine-d5” value in series [1] (setting [8]) and in series [1] (setting [9]) were 35.70 ± 0.86 and 7.68 ± 1.51, respectively. Moreover, in [1], the “formation after 37° C. pre-incubation versus 45° C. pre-incubation” value is reported as 4.6 fold.
`O=c1ccc2ccc(O)cc2o1` [7-hydroxycoumarin]: the metabolized after incubation in the series with human hepatocytes [6] is listed as 99.1%.
In the case of `CCOc1ccc2ccc(=O)oc2c1` [7-ethoxycoumarin, reference compound], in the series on human hepatocytes [7] (100 μM), the metabolized after incubation was 68.9%.
Consider `Clc1ccc([C@]23CNC[C@H]2C3)cc1Cl` [Amitifadine, (1R,5S)-(+)-1-(3,4-dichlorophenyl)-3-azabicyclo[3.1.0]hexane hydrochloride], for which, in the series on human hepatocytes [7] (87 μM), the “parent remaining unchanged after incubation” value is 82.4%. In addition, in the series with Caco-2 cells (setting [11]), the “Mass balance % AP→BL” value was 62% and the “Mass balance % BL→AP” value is 88%.
